The text below walks through data of patent publication US20250354195A1, “METHOD OF SCREENING” (UNIVERSITY OF DUNDEE, priority 2024, published 2025).

This assay concerns the target T1, GSK3β (Homo sapiens, UniProt P49841+Q96SW2).
T1 construct: genetically engineered using CRISPR/Cas9 technology to endogenously tag GSK3p protein with HiBiT tag at the C-terminus; host or cells: HEK293 cells, CRISPR/Cas9 knock-in of HiBiT at the endogenous GSK3B locus
Kind of assay: High throughput screening for GSK3β-HiBiT targeted degradation (Nano-Glo HiBiT Lytic luminescence). The format is cell-based. The note with it: HEK293 cells with endogenously HiBiT-tagged GSK3β, 24 h incubation, products of one-pot plate array (FIG. 1, Method A); for DC50: 0.01-30 μM, read-out: DC50 (half-maximal degradation concentration). As to the method: High throughput Screening for GSK3 β-HiBiTL: Test compounds were transferred into Echo plate (Beckman, 001-12782, Echo LDV384) using BRAVO automated liquid handling platform which serves as source plate (10 mM stocks in DMSO). Serial dilutions of the compounds were done using Echo550 liquid handler as 30 μM, 10 μM, 3 μM, 1 μM, 0.3 μM, 0.1 μM, 0.03 μM and 0.01 μM in final concentrations in assay plates. One column of each assay plate was reserved for DMSO control treatments. After compounds were serially diluted in assay plates, HEK293 cells (CRL-1573, ATCC) genetically engineered using CRISPR/Cas9 technology to endogenously tag GSK3p protein with HiBiT tag at the C-terminus (Schwinn et al., 2018, CRISPR-mediated tagging of endogenous proteins with a luminescent peptide, ACS Chem. Biol., 13(2), 467-74) were seeded at a density of 5000 cells/well in 50 μL complete media in 384-well TC-grade white plates (Perkin Elmer, Culturplate, 6007619) with the help of Multidrop Combi liquid dispenser and cells were incubated for 24 h with compounds at 37° C. in humidified incubators with 5% CO2. At the end of the treatment, equal volume of Nano-Glo HiBiT Lytic reagent (Promega N3030) supplied with Nano-Glo HiBiT Lytic substrate and LgBiT Protein were added into each well according to manufacturer's instructions, and cells were incubated on an orbital shaker for 15 seconds and for a further 15 minutes at room temperature. Luminescence signals were measured in an appropriate plate reader (PHERAstar FSX, BMG Labtech) (Dixon et al., 2016, NanoLuc complementation reporter optimized for accurate measurement of protein interactions in cells, ACS Chem. Biol., 11, 400-8). Changes in protein abundance upon compound treatment were further analysed by normalising raw luminescence values to DMSO values and fold changes were plotted using for parameter logistic regression with GraphPad Prism (10.1.2).
Furthermore, the present investigators have shown that bifunctional compounds manufactured using the method of the present disclosure may be effective in the uses of bifunctional compounds, for example as PROTACs in targeted protein degradation (TPD). […] GSK3p was targeted for degradation using a binder for GSK3p, and a binder for CRBN; the binders were comprised in molecules comprising moieties for reacting with the orthogonally reactive moieties of the linker. […] The “identifier” identifies the well of the multi-well plate that has been sampled, e.g., AHD2B-1-A1 relates to the top left well in FIG. 1. The DC50 provides an indication of the potency of the bifunctional compound in targeted degradation; Dmax provides an indication of the maximum possible degradation. The use of these metrics is further described in Flexible Fitting of PROTAC Concentration-Response Curves with Changepoint Gaussian Processes, Semenova et al., SLAS Discovery, 2021, 26, 1212-1224.
(With HiBiT, luminescence reflects the tagged protein that the partner subunit can reach.)

T1 sequence (P49841 whole entry): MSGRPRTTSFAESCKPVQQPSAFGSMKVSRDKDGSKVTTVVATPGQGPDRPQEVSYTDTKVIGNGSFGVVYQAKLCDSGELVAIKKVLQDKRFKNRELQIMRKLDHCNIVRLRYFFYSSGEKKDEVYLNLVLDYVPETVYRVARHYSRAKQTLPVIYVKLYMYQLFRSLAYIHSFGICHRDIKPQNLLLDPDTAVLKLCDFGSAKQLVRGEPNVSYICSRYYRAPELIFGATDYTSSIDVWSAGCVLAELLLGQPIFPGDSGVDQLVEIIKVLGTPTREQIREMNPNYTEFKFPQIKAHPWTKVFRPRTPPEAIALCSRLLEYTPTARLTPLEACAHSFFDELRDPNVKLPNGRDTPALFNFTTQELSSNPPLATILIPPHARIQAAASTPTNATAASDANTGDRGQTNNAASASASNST
T1 sequence (Q96SW2 whole entry): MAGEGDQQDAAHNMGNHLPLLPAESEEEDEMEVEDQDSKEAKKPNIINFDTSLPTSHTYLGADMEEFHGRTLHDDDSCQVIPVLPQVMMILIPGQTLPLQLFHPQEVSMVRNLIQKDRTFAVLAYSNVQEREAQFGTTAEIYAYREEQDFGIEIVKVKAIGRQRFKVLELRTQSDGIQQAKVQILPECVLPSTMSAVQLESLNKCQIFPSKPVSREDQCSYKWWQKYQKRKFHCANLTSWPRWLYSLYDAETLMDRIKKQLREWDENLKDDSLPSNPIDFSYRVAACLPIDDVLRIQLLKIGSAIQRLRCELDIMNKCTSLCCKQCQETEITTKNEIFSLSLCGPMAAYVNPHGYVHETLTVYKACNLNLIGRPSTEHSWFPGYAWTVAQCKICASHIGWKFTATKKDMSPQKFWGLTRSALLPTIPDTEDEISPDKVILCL
T1 sequence (Q16531 whole entry partner): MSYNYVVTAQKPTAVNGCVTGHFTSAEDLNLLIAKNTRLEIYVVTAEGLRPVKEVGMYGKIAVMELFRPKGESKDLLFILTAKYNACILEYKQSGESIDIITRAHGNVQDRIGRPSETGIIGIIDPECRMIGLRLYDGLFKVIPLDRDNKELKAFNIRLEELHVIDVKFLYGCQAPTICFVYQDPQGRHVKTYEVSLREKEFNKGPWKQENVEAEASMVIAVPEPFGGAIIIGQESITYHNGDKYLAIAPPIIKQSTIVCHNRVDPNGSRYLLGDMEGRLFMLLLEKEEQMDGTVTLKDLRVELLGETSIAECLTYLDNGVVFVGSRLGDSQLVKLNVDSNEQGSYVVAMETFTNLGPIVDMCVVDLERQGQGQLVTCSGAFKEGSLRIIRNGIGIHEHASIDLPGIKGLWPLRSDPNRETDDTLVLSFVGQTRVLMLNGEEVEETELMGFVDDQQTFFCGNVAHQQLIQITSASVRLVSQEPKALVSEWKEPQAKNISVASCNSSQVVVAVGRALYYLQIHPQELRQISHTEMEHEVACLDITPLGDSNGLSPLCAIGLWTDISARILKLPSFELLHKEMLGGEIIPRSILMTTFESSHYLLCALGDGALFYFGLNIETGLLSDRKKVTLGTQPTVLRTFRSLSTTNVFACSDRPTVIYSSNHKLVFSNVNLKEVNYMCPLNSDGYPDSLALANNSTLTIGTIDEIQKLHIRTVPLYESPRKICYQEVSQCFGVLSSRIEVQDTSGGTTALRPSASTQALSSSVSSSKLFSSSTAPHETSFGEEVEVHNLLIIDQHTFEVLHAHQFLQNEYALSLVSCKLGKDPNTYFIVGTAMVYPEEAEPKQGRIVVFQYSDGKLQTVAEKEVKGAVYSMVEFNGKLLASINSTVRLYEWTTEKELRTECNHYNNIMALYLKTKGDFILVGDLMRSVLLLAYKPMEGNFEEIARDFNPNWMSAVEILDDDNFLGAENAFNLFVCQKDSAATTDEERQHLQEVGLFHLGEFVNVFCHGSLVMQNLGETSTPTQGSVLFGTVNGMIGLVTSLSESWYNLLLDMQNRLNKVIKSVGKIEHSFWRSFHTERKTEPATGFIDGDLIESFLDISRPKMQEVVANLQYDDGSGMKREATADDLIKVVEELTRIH

For the molecule `COc1ccc(-c2ocnc2C(=O)NCCCn2cc(CCCCN3CCN(Cc4cccc(N5CCC(=O)NC5=O)c4)CC3)nn2)cc1Cl` [AHD2B-1-A1], the DC50 is more than 10 µM and the “Dmax (maximal effect)” value is less than 30%.
The like results for `COc1ccc(-c2ocnc2C(=O)NCCCn2cc(-c3ccc(CN4CCN(Cc5cccc(N6CCC(=O)NC6=O)c5)CC4)cn3)nn2)cc1Cl` [AHD2B-1-A2] were, in that order, more than 10 µM and less than 30%.
With `COc1ccc(-c2ocnc2C(=O)NCCCn2cc(COc3ccc(CN4CCN(Cc5cccc(N6CCC(=O)NC6=O)c5)CC4)cc3)nn2)cc1Cl` [AHD2B-1-A3], the DC50 is more than 10 µM and the “Dmax (maximal effect)” value is given as less than 30%.
On to `COc1ccc(-c2ocnc2C(=O)NCCCn2cc(CCCOc3ccc(CN4CCN(Cc5cccc(N6CCC(=O)NC6=O)c5)CC4)cc3)nn2)cc1Cl` [AHD2B-1-A4], for which the DC50 was more than 10 µM and the “Dmax (maximal effect)” value was less than 30%.
As for `COc1ccc(-c2ocnc2C(=O)NCCCn2cc(COC3CCN(Cc4cccc(N5CCC(=O)NC5=O)c4)CC3)nn2)cc1Cl` [AHD2B-1-A5], the DC50 is more than 10 µM and the “Dmax (maximal effect)” value is reported as less than 30%.
As to `COc1ccc(-c2ocnc2C(=O)NCCCn2cc(COc3ccc(CN4CCC5(C4)CN(Cc4cccc(N6CCC(=O)NC6=O)c4)C5)cc3)nn2)cc1Cl` [AHD2B-1-A6], the DC50 is more than 10 µM and the “Dmax (maximal effect)” value is reported as less than 30%.
In the case of `COc1ccc(-c2ocnc2C(=O)NCCCn2cc(CCCCCN3CCN(Cc4cccc(N5CCC(=O)NC5=O)c4)CC3)nn2)cc1Cl` [AHD2B-1-A7], the DC50 was more than 10 µM and the “Dmax (maximal effect)” value was less than 30%.
Regarding `COc1ccc(-c2ocnc2C(=O)NCCCn2cc(-c3cccc(CN4CCN(Cc5cccc(N6CCC(=O)NC6=O)c5)CC4)n3)nn2)cc1Cl` [AHD2B-1-A8], the DC50 was more than 10 µM and the “Dmax (maximal effect)” value is given as less than 30%.
In the case of `COc1ccc(-c2ocnc2C(=O)NCCCn2cc(CCCCCN3CCCN(Cc4cccc(N5CCC(=O)NC5=O)c4)CC3)nn2)cc1Cl` [AHD2B-1-A9], the DC50 is more than 10 µM and the “Dmax (maximal effect)” value was less than 30%.
Regarding `COc1ccc(-c2ocnc2C(=O)NCCCn2cc(COCCOCCN3CCN(Cc4cccc(N5CCC(=O)NC5=O)c4)CC3)nn2)cc1Cl` [AHD2B-1-A10], the DC50 is more than 10 µM and the “Dmax (maximal effect)” value is less than 30%.
The matching figures for `COc1ccc(-c2ocnc2C(=O)NCCCn2cc(COc3ccc(CN4CC5(C4)CN(Cc4cccc(N6CCC(=O)NC6=O)c4)C5)cc3)nn2)cc1Cl` [AHD2B-1-A11]: more than 10 µM and less than 30%.
On to `COc1ccc(-c2ocnc2C(=O)NCCCn2cc(CCCCN3CCN(CC(=O)N[C@H](C(=O)N4C[C@H](O)C[C@H]4C(=O)NCc4ccc(-c5scnc5C)cc4)C(C)(C)C)CC3)nn2)cc1Cl` [AHD2B-1-B1], for which the DC50 is more than 10 µM and the “Dmax (maximal effect)” value was less than 30%.
In the case of `COc1ccc(-c2ocnc2C(=O)NCCCn2cc(-c3ccc(CN4CCN(CC(=O)N[C@H](C(=O)N5C[C@H](O)C[C@H]5C(=O)NCc5ccc(-c6scnc6C)cc5)C(C)(C)C)CC4)cn3)nn2)cc1Cl` [AHD2B-1-B2], the DC50 is more than 10 µM and the “Dmax (maximal effect)” value was less than 30%.
With `COc1ccc(-c2ocnc2C(=O)NCCCn2cc(COc3ccc(CN4CCN(CC(=O)N[C@H](C(=O)N5C[C@H](O)C[C@H]5C(=O)NCc5ccc(-c6scnc6C)cc5)C(C)(C)C)CC4)cc3)nn2)cc1Cl` [AHD2B-1-B3], the DC50 is more than 10 µM and the “Dmax (maximal effect)” value is reported as less than 30%.
Regarding `COc1ccc(-c2ocnc2C(=O)NCCCn2cc(CCCOc3ccc(CN4CCN(CC(=O)N[C@H](C(=O)N5C[C@H](O)C[C@H]5C(=O)NCc5ccc(-c6scnc6C)cc5)C(C)(C)C)CC4)cc3)nn2)cc1Cl` [AHD2B-1-B4], the DC50 was more than 10 µM and the “Dmax (maximal effect)” value is less than 30%.
Take `COc1ccc(-c2ocnc2C(=O)NCCCn2cc(COC3CCN(CC(=O)N[C@H](C(=O)N4C[C@H](O)C[C@H]4C(=O)NCc4ccc(-c5scnc5C)cc4)C(C)(C)C)CC3)nn2)cc1Cl` [AHD2B-1-B5]: the DC50 is more than 10 µM and the “Dmax (maximal effect)” value was less than 30%.
As to `COc1ccc(-c2ocnc2C(=O)NCCCn2cc(COc3ccc(CN4CCC5(C4)CN(CC(=O)N[C@H](C(=O)N4C[C@H](O)C[C@H]4C(=O)NCc4ccc(-c6scnc6C)cc4)C(C)(C)C)C5)cc3)nn2)cc1Cl` [AHD2B-1-B6], the DC50 is more than 10 µM and the “Dmax (maximal effect)” value is on record as less than 30%.
Take `COc1ccc(-c2ocnc2C(=O)NCCCn2cc(-c3cccc(CN4CCN(CC(=O)N[C@H](C(=O)N5C[C@H](O)C[C@H]5C(=O)NCc5ccc(-c6scnc6C)cc5)C(C)(C)C)CC4)n3)nn2)cc1Cl` [AHD2B-1-B8]: the DC50 is more than 10 µM and the “Dmax (maximal effect)” value is on record as less than 30%.
Regarding `COc1ccc(-c2ocnc2C(=O)NCCCn2cc(CCCCCN3CCCN(CC(=O)N[C@H](C(=O)N4C[C@H](O)C[C@H]4C(=O)NCc4ccc(-c5scnc5C)cc4)C(C)(C)C)CC3)nn2)cc1Cl` [AHD2B-1-B9], the DC50 is more than 10 µM and the “Dmax (maximal effect)” value is less than 30%.
`COc1ccc(-c2ocnc2C(=O)NCCCn2cc(COCCOCCN3CCN(CC(=O)N[C@H](C(=O)N4C[C@H](O)C[C@H]4C(=O)NCc4ccc(-c5scnc5C)cc4)C(C)(C)C)CC3)nn2)cc1Cl` [AHD2B-1-B10]: the DC50 was more than 10 µM and the “Dmax (maximal effect)” value is less than 30%.
Turning to `COc1ccc(-c2ocnc2C(=O)NCCCn2cc(COc3ccc(CN4CC5(CN(CC(=O)N[C@H](C(=O)N6C[C@H](O)C[C@H]6C(=O)NCc6ccc(-c7scnc7C)cc6)C(C)(C)C)C5)C4)cc3)nn2)cc1Cl` [AHD2B-1-B11], the DC50 was more than 10 µM and the “Dmax (maximal effect)” value is given as less than 30%.
As to `COc1ccc(-c2ocnc2C(=O)NCCCn2cc(CCCN3CCN(CC(=O)N[C@H](C(=O)N4C[C@H](O)C[C@H]4C(=O)NCc4ccc(-c5scnc5C)cc4)C(C)(C)C)CC3)nn2)cc1Cl` [AHD2B-1-B12], the DC50 was more than 10 µM and the “Dmax (maximal effect)” value is recorded as less than 30%.
As for `COc1ccc(-c2ocnc2C(=O)NCCCn2cc(CCCOc3ccc(CN4CCN(Cc5ccc(C(=O)NC6CCC(=O)NC6=O)c(F)c5)CC4)cc3)nn2)cc1Cl` (centres unmarked) [AHD2B-1-C4], the DC50 was less than 0.25 µM and the “Dmax (maximal effect)” value is listed as 53%.
As to `COc1ccc(-c2ocnc2C(=O)NCCCn2cc(COc3ccc(CN4CCC5(C4)CN(Cc4ccc(C(=O)NC6CCC(=O)NC6=O)c(F)c4)C5)cc3)nn2)cc1Cl` (centres unmarked) [AHD2B-1-C6], the DC50 amounted to 1.6 µM and the “Dmax (maximal effect)” value was found to be 59%.
For the molecule `COc1ccc(-c2ocnc2C(=O)NCCCn2cc(-c3cccc(CN4CCN(Cc5ccc(C(=O)NC6CCC(=O)NC6=O)c(F)c5)CC4)n3)nn2)cc1Cl` (centres unmarked) [AHD2B-1-C8], the DC50 is more than 10 µM and the “Dmax (maximal effect)” value was less than 30%.
Take `COc1ccc(-c2ocnc2C(=O)NCCCn2cc(CCCCCN3CCCN(Cc4ccc(C(=O)NC5CCC(=O)NC5=O)c(F)c4)CC3)nn2)cc1Cl` (centres unmarked) [AHD2B-1-C9]: the DC50 worked out at 7.1 µM and the “Dmax (maximal effect)” value was determined as 39%.
For `COc1ccc(-c2ocnc2C(=O)NCCCn2cc(COCCOCCN3CCN(Cc4ccc(C(=O)NC5CCC(=O)NC5=O)c(F)c4)CC3)nn2)cc1Cl` (centres unmarked) [AHD2B-1-C10], the DC50 is more than 10 µM and the “Dmax (maximal effect)” value is less than 30%.
For `COc1ccc(-c2ocnc2C(=O)NCCCn2cc(COc3ccc(CN4CC5(C4)CN(Cc4ccc(C(=O)NC6CCC(=O)NC6=O)c(F)c4)C5)cc3)nn2)cc1Cl` (centres unmarked) [AHD2B-1-C11], the DC50 was determined as 1.9 µM and the “Dmax (maximal effect)” value is recorded as 56%.
